Assay [1] addresses FGFR4 (Homo sapiens (Human), UniProt P22455). Nature of the assay: FGFR Enzymatic Assay (peptide phosphorylation, FRET), FGFR4. The assay is classed as biochemical. On the procedure: (§1) The inhibitor potency of the exemplified compounds was measured in an enzyme assay that measures peptide phosphorylation using FRET measurements to detect product formation. Inhibitors were serially diluted in DMSO and a volume of 0.5 μL was transferred to the wells of a 384-well plate.
The enzymes were purchased from Millipore or Invitrogen.
(§2) GraphPad prism3 was used to analyze the data.

Assay [2] concerns the target FGFR3 enzyme (Homo sapiens (Human), UniProt P22607). The assay is described as follows: FGFR Enzymatic Assay (peptide phosphorylation, FRET), FGFR3. The assay is classed as biochemical. To be noted: IC50 ratio showing FGFR3 selectivity; pre-incubated for 4 hours. On the procedure:
as §1, §2

Where [3] appears, read: IC50 ratio showing FGFR4 selectivity, pre-incubated for 4 hours.
Setting [4] is: ratio of IC50 data showing FGFR4 selectivity, pre-incubated for 5 to 10 minutes.

Sequence of FGFR3 enzyme (P22607 23-806): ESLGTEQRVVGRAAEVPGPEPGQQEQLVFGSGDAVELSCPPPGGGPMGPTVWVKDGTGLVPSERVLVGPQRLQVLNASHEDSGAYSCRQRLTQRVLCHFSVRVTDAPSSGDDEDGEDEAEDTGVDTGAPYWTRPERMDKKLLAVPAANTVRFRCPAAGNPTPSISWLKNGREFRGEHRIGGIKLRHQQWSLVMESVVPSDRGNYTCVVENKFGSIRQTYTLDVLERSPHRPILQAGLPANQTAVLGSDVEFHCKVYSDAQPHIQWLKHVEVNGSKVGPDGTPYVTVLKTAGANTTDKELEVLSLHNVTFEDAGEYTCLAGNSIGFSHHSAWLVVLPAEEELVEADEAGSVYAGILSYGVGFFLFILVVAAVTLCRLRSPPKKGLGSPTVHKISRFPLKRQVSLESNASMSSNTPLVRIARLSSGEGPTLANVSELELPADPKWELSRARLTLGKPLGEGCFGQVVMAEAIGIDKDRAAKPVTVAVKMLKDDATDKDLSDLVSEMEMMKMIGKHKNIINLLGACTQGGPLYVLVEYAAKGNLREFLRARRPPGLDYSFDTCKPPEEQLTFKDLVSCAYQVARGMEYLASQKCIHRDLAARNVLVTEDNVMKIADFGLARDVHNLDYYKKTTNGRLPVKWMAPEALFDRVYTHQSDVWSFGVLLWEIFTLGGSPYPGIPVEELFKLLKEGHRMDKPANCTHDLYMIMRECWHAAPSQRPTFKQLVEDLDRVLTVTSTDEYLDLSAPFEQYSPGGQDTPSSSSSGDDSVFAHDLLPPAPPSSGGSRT
Sequence of FGFR4 (P22455 22-802): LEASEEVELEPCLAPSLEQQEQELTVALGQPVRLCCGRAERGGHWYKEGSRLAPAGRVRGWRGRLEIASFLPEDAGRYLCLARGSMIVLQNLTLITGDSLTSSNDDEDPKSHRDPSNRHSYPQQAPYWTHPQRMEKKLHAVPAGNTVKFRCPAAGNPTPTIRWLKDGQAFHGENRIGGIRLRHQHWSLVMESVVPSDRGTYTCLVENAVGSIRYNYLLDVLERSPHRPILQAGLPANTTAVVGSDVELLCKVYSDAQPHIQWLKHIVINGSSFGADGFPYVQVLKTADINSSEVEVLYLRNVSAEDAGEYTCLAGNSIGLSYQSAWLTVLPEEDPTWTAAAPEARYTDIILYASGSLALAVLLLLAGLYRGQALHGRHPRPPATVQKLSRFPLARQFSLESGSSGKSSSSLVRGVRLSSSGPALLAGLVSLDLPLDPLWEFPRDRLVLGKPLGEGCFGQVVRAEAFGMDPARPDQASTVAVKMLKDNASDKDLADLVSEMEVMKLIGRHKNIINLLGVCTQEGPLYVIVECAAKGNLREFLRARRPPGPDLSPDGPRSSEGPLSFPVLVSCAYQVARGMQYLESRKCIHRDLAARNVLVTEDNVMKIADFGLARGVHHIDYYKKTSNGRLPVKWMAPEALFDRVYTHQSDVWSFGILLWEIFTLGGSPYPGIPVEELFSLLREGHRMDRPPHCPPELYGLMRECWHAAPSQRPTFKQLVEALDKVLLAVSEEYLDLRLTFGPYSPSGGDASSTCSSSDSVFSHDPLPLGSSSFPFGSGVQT

In the case of `COc1cc(OC)c(F)c(N2Cc3cnc(-c4cc(N)c(F)cc4C)cc3C3(CC3)C2=O)c1F` [Example 2, 6′-(5-amino-4-fluoro-2-methylphenyl)-2′-(2,6-difluoro-3,5-dimethoxyphenyl)-1′H-spiro[cyclopropane-1,4′-[2,7]naphthyridin]-3′(2′H)-one], in assay [1] (setting [3]), the FGFR1/FGFR4 was above 10, the FGFR2/FGFR4 is on record as above 10 and the FGFR3/FGFR4 is above 10. Besides, in assay [1] (setting [4]), the FGFR1/FGFR4 is reported as above 10, the FGFR2/FGFR4 is reported as above 10 and the FGFR3/FGFR4 is above 10.

For `COc1cc(OC)c(F)c(N2Cc3cnc(-c4cc(N)ccc4C#N)cc3C3(CC3)C2=O)c1F` [Example 3, 4-amino-2-(2′-(2,6-difluoro-3,5-dimethoxyphenyl)-3′-oxo-2′,3′-dihydro-1′H-spiro[cyclopropane-1,4′-[2,7]naphthyridine]-6′-yl)benzonitrile], in assay [1] (setting [3]), the FGFR1/FGFR4 is reported as above 25, the FGFR2/FGFR4 is recorded as above 25 and the FGFR3/FGFR4 was above 10. In addition, in assay [1] (setting [4]), the FGFR1/FGFR4 is on record as above 25, the FGFR2/FGFR4 is given as above 25 and the FGFR3/FGFR4 is recorded as above 25.

For the molecule `COc1cc(OC)c(F)c(N2Cc3cnc(-c4cncc(N)c4)cc3C3(CC3)C2=O)c1F` [Example 4, 6′-(5-aminopyridin-3-yl)-2′-(2,6-difluoro-3,5-dimethoxyphenyl)-1′H-spiro[cyclopropane-1,4′-[2,7]naphthyridin]-3′(2′H)-one], in assay [2], the FGFR1/FGFR3 is recorded as above 1. Moreover, in assay [1] (setting [3]), the FGFR1/FGFR4 was above 25, the FGFR2/FGFR4 is reported as above 10 and the FGFR3/FGFR4 is listed as above 10. In addition, in assay [1] (setting [4]), the FGFR1/FGFR4 is given as above 10, the FGFR2/FGFR4 is recorded as above 10 and the FGFR3/FGFR4 is reported as above 5.

In the case of `COc1cc(OC)c(F)c(N2Cc3cnc(-c4cncc(F)c4)cc3C3(CC3)C2=O)c1F` [Example 5, 2′-(2,6-difluoro-3,5-dimethoxyphenyl)-6′-(5-fluoropyridin-3-yl)-1′H-spiro[cyclopropane-1,4′-[2,7]naphthyridin]-3′(2′H)-one], the FGFR1/FGFR3 in assay [2] is reported as above 3. For the same molecule, in assay [1] (setting [3]), the FGFR1/FGFR4 is on record as above 10, the FGFR2/FGFR4 is listed as above 5 and the FGFR3/FGFR4 is given as above 1. In addition, in assay [1] (setting [4]), the FGFR1/FGFR4 was above 10, the FGFR2/FGFR4 was above 5 and the FGFR3/FGFR4 is above 4.

On to `COc1cc(OC)c(F)c(N2Cc3cnc(-c4cncc(N5CCOCC5)c4)cc3C3(CC3)C2=O)c1F` [Example 6, 2′-(2,6-difluoro-3,5-dimethoxyphenyl)-6′-(5-morpholinopyridin-3-yl)-1′H-spiro[cyclopropane-1,4′-[2,7]naphthyridin]-3′(2′H)-one], for which, in assay [2], the FGFR1/FGFR3 is recorded as above 3. Also, in assay [1] (setting [3]), the FGFR1/FGFR4 is given as above 100, the FGFR2/FGFR4 is recorded as above 100 and the FGFR3/FGFR4 was above 25. Moreover, in assay [1] (setting [4]), the FGFR1/FGFR4 is given as above 100, the FGFR2/FGFR4 is above 100 and the FGFR3/FGFR4 is given as above 50.

Take `COc1cc(OC)c(F)c(N2Cc3cnc(-c4cc(N)cnc4C)cc3C3(CC3)C2=O)c1F` [Example 7, 6′-(5-amino-2-methylpyridin-3-yl)-2′-(2,6-difluoro-3,5-dimethoxyphenyl)-1′H-spiro[cyclopropane-1,4′-[2,7]naphthyridin]-3′(2′H)-one]: the FGFR1/FGFR3 in assay [2] was above 1. Further, in assay [1] (setting [3]), the FGFR1/FGFR4 is above 50, the FGFR2/FGFR4 is above 25 and the FGFR3/FGFR4 is reported as above 25. Further, in assay [1] (setting [4]), the FGFR1/FGFR4 is given as above 25, the FGFR2/FGFR4 is above 10 and the FGFR3/FGFR4 is above 10.

Take `COc1cc(OC)c(F)c(N2Cc3cnc(-c4cncc(C#N)c4)cc3C3(CC3)C2=O)c1F` [Example 8, 5-(2′-(2,6-difluoro-3,5-dimethoxyphenyl)-3′-oxo-2′,3′-dihydro-1′H-spiro[cyclopropane-1,4′-[2,7]naphthyridine]-6′-yl)nicotinonitrile]: the FGFR1/FGFR3 in assay [2] is recorded as above 5. Also, in assay [1] (setting [3]), the FGFR1/FGFR4 was above 50, the FGFR2/FGFR4 is reported as above 10 and the FGFR3/FGFR4 is given as above 10. In assay [1] (setting [4]), the FGFR1/FGFR4 is on record as above 50, the FGFR2/FGFR4 is on record as above 10 and the FGFR3/FGFR4 is above 10.

Take `COc1cc(OC)c(F)c(N2Cc3cnc(-c4cccnc4)cc3C3(CC3)C2=O)c1F` [Example 9, 2′-(2,6-difluoro-3,5-dimethoxyphenyl)-6′-(pyridin-3-yl)-1′H-spiro[cyclopropane-1,4′-[2,7]naphthyridin]-3′(2′H)-one]: the FGFR1/FGFR3 in assay [2] was above 3. In assay [1] (setting [3]), the FGFR1/FGFR4 was above 10, the FGFR2/FGFR4 is above 1 and the FGFR3/FGFR4 is above 1. For the same molecule, in assay [1] (setting [4]), the FGFR1/FGFR4 is above 5, the FGFR2/FGFR4 is listed as above 1 and the FGFR3/FGFR4 is above 1.

On to `COc1cncc(-c2cc3c(cn2)CN(c2c(F)c(OC)cc(OC)c2F)C(=O)C32CC2)c1` [Example 10, 2′-(2,6-difluoro-3,5-dimethoxyphenyl)-6′-(5-methoxypyridin-3-yl)-1′H-spiro[cyclopropane-1,4′-[2,7]naphthyridin]-3′(2′H)-one], for which the FGFR1/FGFR3 in assay [2] is given as above 1. In assay [1] (setting [3]), the FGFR1/FGFR4 is recorded as above 25, the FGFR2/FGFR4 was above 25 and the FGFR3/FGFR4 is given as above 10. Also, in assay [1] (setting [4]), the FGFR1/FGFR4 is on record as above 25, the FGFR2/FGFR4 is given as above 10 and the FGFR3/FGFR4 is given as above 10.

As for `COc1cc(OC)c(F)c(N2Cc3cnc(-c4cncc(Cl)c4)cc3C3(CC3)C2=O)c1F` [Example 11, 6′-(5-chloropyridin-3-yl)-2′-(2,6-difluoro-3,5-dimethoxyphenyl)-1′H-spiro[cyclopropane-1,4′-[2,7]naphthyridin]-3′(2′H)-one], the FGFR1/FGFR3 in assay [2] is above 1. In assay [1] (setting [3]), the FGFR1/FGFR4 is reported as above 25, the FGFR2/FGFR4 is reported as above 25 and the FGFR3/FGFR4 was above 10. In assay [1] (setting [4]), the FGFR1/FGFR4 was above 50, the FGFR2/FGFR4 is reported as above 20 and the FGFR3/FGFR4 was above 25.

Turning to `COc1cc(OC)c(F)c(N2Cc3cnc(-c4cncc(-n5ccnc5)c4)cc3C3(CC3)C2=O)c1F` [Example 12, 6′-(5-(1H-imidazol-1-yl)pyridin-3-yl)-2′-(2,6-difluoro-3,5-dimethoxyphenyl)-1′H-spiro[cyclopropane-1,4′-[2,7]naphthyridin]-3′(2′H)-one], the FGFR1/FGFR3 in assay [2] is given as above 3. For the same molecule, in assay [1] (setting [3]), the FGFR1/FGFR4 is above 50, the FGFR2/FGFR4 was above 25 and the FGFR3/FGFR4 is listed as above 10. In assay [1] (setting [4]), the FGFR1/FGFR4 was above 50, the FGFR2/FGFR4 is reported as above 25 and the FGFR3/FGFR4 is given as above 20.

As for `COc1cc(OC)c(F)c(N2Cc3cnc(-c4cncc(C(=O)N5CCOCC5)c4)cc3C3(CC3)C2=O)c1F` [Example 13, 2′-(2,6-difluoro-3,5-dimethoxyphenyl)-6′-(5-(morpholine-4-carbonyl)pyridin-3-yl)-1′H-spiro[cyclopropane-1,4′-[2,7]naphthyridin]-3′(2′H)-one], in assay [2], the FGFR1/FGFR3 is given as above 3. In assay [1] (setting [3]), the FGFR1/FGFR4 was above 50, the FGFR2/FGFR4 is given as above 25 and the FGFR3/FGFR4 is recorded as above 10. In assay [1] (setting [4]), the FGFR1/FGFR4 is reported as above 50, the FGFR2/FGFR4 is recorded as above 20 and the FGFR3/FGFR4 was above 10.

With `COc1cc(OC)c(F)c(N2Cc3cnc(-c4cncc(S(=O)(=O)N5CCOCC5)c4)cc3C3(CC3)C2=O)c1F` [Example 14, 2′-(2,6-difluoro-3,5-dimethoxyphenyl)-6′-(5-(morpholinosulfonyl)pyridin-3-yl)-1′H-spiro[cyclopropane-1,4′-[2,7]naphthyridin]-3′(2′H)-one], in assay [2], the FGFR1/FGFR3 is on record as above 5. Further, in assay [1] (setting [3]), the FGFR1/FGFR4 was above 50, the FGFR2/FGFR4 is above 10 and the FGFR3/FGFR4 is above 1. Moreover, in assay [1] (setting [4]), the FGFR1/FGFR4 is above 25, the FGFR2/FGFR4 was above 5 and the FGFR3/FGFR4 is given as above 5.

Consider `COc1cc(OC)c(F)c(N2Cc3cnc(-c4[nH]ncc4C#N)cc3C3(CC3)C2=O)c1F` [Example 171, 5-(2′-(2,6-difluoro-3,5-dimethoxyphenyl)-3′-oxo-2′,3′-dihydro-1′H-spiro[cyclopropane-1,4′-[2,7]naphthyridine]-6′-yl)-1H-pyrazole-4-carbonitrile], for which, in assay [1] (setting [3]), the FGFR1/FGFR4 is above 10, the FGFR2/FGFR4 is above 10 and the FGFR3/FGFR4 is on record as above 10.

`COc1cc(OC)c(F)c(N2Cc3cnc(-c4nn(C)cc4C#N)cc3C3(CC3)C2=O)c1F` [Example 172, 3-(2′-(2,6-difluoro-3,5-dimethoxyphenyl)-3′-oxo-2′,3′-dihydro-1′H-spiro[cyclopropane-1,4′-[2,7]naphthyridine]-6′-yl)-1-methyl-1H-pyrazole-4-carbonitrile]: in assay [1] (setting [3]), the FGFR1/FGFR4 was above 50, the FGFR2/FGFR4 is above 25 and the FGFR3/FGFR4 is above 10.

With `COc1cc(OC)c(F)c(N2Cc3cnc(-c4nn(CC5CCOCC5)cc4C#N)cc3C3(CC3)C2=O)c1F` [Example 173, 3-(2′-(2,6-difluoro-3,5-dimethoxyphenyl)-3′-oxo-2′,3′-dihydro-1′H-spiro[cyclopropane-1,4′-[2,7]naphthyridine]-6′-yl)-1-((tetrahydro-2H-pyran-4-yl)methyl)-1H-pyrazole-4-carbonitrile], in assay [1] (setting [3]), the FGFR1/FGFR4 is above 100, the FGFR2/FGFR4 is listed as above 100 and the FGFR3/FGFR4 is on record as above 50.

As for `COc1cc(OC)c(F)c(N2Cc3cnc(-c4nn(CC#N)cc4C#N)cc3C3(CC3)C2=O)c1F` [Example 174, 1-(cyanomethyl)-3-(2′-(2,6-difluoro-3,5-dimethoxyphenyl)-3′-oxo-2′,3′-dihydro-1′H-spiro[cyclopropane-1,4′-[2,7]naphthyridine]-6′-yl)-1H-pyrazole-4-carbonitrile], in assay [1] (setting [3]), the FGFR1/FGFR4 is given as above 100, the FGFR2/FGFR4 was above 10 and the FGFR3/FGFR4 is recorded as above 25.

These data come from US10251892B2, “Bicyclic heterocycles as FGFR4 inhibitors” (Incyte Corporation, priority 2015, dated 2019).
